{"source": "patent US12460177B2", "about": "“Composition for promoting efficiency of somatic cell replication” (SEOUL NATIONAL UNIVERSITY HOSPITAL, priority 2018, dated 2025)", "tested_on": "H3K9me3 / H3K4me3 binding at the Apobec1 (demethylase) promoter region", "experiment": "ChIP-PCR with Apobec1 promoter primers in human mesenchymal stem cells treated with endothelin", "format": "cell-based", "conditions": "endothelin treatment, FIG. 1", "excerpt": "Human mesenchymal stem cells were transfected with siRNA of SMARCA4 or SMARCD2, treated with endothelin, and then harvested. In the present invention, human mesenchymal stem cells (Poietics™ Human Mesenchymal Stem Cells, Lonza) were used. The cells were selected by conducting a human mesenchymal stem cell identification experiment, and identified and classified as human bone marrow-derived stem cells after the expression of a positive cell marker (CD29, CD90, CD44, CD73, CD105 or CD166) for mesenchymal stem cells, the negative identification by a cell marker (CD34, CD45, CD14, HLA-DR or CD19), and the confirmation of multipotency of mesenchymal stem cells.\nGenomic DNA was extracted from the recovered cells, and reacted with a H3K9me3 or H3K4me3 antibody [anti-H3K9me3 (Abcam: cat. no. ab8898), anti-H3K4me3 (Abcam; cat. no. ab8580) or normal rabbit IgG (Cell Signaling Technology: cat. no. #2729): negative control], followed by ChIP-PCR performed using Apobec1 promoter primers that are able to confirm the binding of H3K9me3 or H3K4me3. […]\nSubsequently, the resulting product was heated at 65° C. for 4 hours to remove a crosslink. DNA fragments were collected using a PCR purification kit (Qiagen) and analyzed using qPCR and semi-quantitative PCR, and the results are shown in FIG. 1."}
{"substance": "endothelin (HLDIIW; listed as Mus musculus) [peptide generated in vascular endothelial cells, 21 amino acid residues, two S—S bonds, known as a vasoconstrictive peptide]", "values": [{"measurement": "binding of H3K4me3 (promoting gene expression) at the demethylase promoter region", "setting": "ChIP-PCR (anti-H3K4me3)", "result": "increases"}, {"measurement": "H3K9me3 (suppressing gene expression) at the demethylase promoter region", "setting": "ChIP-PCR (anti-H3K9me3)", "result": "detached"}]}
